Test results as given in patent US9593108B2, “Compounds and methods for antiviral treatment” (PTC Therapeutics, Inc., priority 2009, dated 2017).

Tested on: HCV replicon RNA (GenBank Accession No. AJ242654)
Assay: HCV Replicon Assay (replicon RNA reduction and/or Fluc reporter signal)
Format: cell-based, Hepatitis C virus
Conditions: Hepatitis C virus, 72 h, replicon-containing cells cultured with test compound for up to 3 days
Source text: The lack of reliable and readily accessible cell-culture and small animal models permissive for HCV replication has limited the development of new anti-HCV agents. Self-replicating subgenomic HCV systems, termed HCV replicons, have been described and have been widely used to assess the efficacy of anti-HCV inhibitors (see Blight K J, et al., 2000, Efficient initiation of HCV RNA replication in cell culture. Science 290:1972-1974; Blight K J, et al., 2002, Highly permissive cell lines for subgenomic and genomic hepatitis C virus RNA replication. J Virol 76:13001-13014; Ikeda M, et al., 2002. Selectable subgenomic and genome-length dicistronic RNAs derived from an infectious molecular clone of the HCV-N strain of hepatitis C virus replicate efficiently in cultured Huh7 cells. J Virol 76:2997-3006; Lohmann V, et al., 1999, Replication of subgenomic hepatitis C virus RNAs in a hepatoma cell line. Science 285:110-113; Pietschmann T, et al., 2002, Persistent and transient replication of full-length hepatitis C virus genomes in cell culture. J Virol 76:4008-4021; and, Pietschmann T, et al., 2001, Characterization of cell lines carrying self-replicating hepatitis C virus RNAs. J Virol 75:1252-1264).
As described in U.S. Pat. No. 6,630,343, HCV inhibitors are analyzed in the bicistronic replicon by quantitating replicon RNA (GenBank Accession No. AJ242654) reduction and/or the Fluc reporter signal. Replicon-containing cells may be cultured with a test compound of the present invention for up to 3 days. Interferon (IFN) is used as a positive control. In general, the replicon IC50 values shown in Table 1 represent IC50 values determined by replicon RNA reduction.

| Molecule | IC50 |
| --- | --- |
| COc1ccc2c(n1)c(C#N)c(-c1ccc(S(=O)(=O)N[C@@H](C)C(F)(F)F)cn1)n2C1CCC1 [Cpd 20, 6-(3-cyano-1-cyclobutyl-5-methoxy-1H-pyrrolo[3,2-b]pyridin-2-yl)-N-[(2S)-1,1,1-trifluoropropan-2-yl]pyridine-3-sulfonamide] | 500 to 2000 nM |
| COc1cnc2c(c1)c(C#N)c(-c1ccc(S(=O)(=O)N[C@@H](C)C(F)(F)F)cn1)n2C1CCC1 [Cpd 22, 6-(3-cyano-1-cyclobutyl-5-methoxy-1H-pyrrolo[2,3-b]pyridin-2-yl)-N-[(2S)-1,1,1-trifluoropropan-2-yl]pyridine-3-sulfonamide] | 500 to 2000 nM |
| COc1ncc2c(C#N)c(-c3ccc(S(=O)(=O)N[C@@H](C)C(F)(F)F)cn3)n(C3CCC3)c2n1 [Cpd 38, 6-(5-cyano-7-cyclobutyl-2-methoxy-7H-pyrrolo[2,3-d]pyrimidin-6-yl)-N-[(2S)-1,1,1-trifluoropropan-2-yl]pyridine-3-sulfonamide] | < 500 nM |
| COc1ncc2c(C#N)c(-c3ccc(S(=O)(=O)N[C@H](C)C(F)(F)F)cn3)n(C3CCC3)c2n1 [Cpd 39, 6-(5-cyano-7-cyclobutyl-2-methoxy-7H-pyrrolo[2,3-d]pyrimidin-6-yl)-N-[(2R)-1,1,1-trifluoropropan-2-yl]pyridine-3-sulfonamide] | 2000 to 5000 nM |
| COc1ccc2c(C#N)c(-c3ccc(S(=O)(=O)NC(CF)CF)cc3)n(C3CCC3)c2n1 [Cpd 43, 4-(3-cyano-1-cyclobutyl-6-methoxy-1H-pyrrolo[2,3-b]pyridin-2-yl)-N-(1,3-difluoropropan-2-yl)benzenesulfonamide] | < 500 nM |
| COc1cnc2c(c1)c(C#N)c(-c1ccc(S(=O)(=O)N[C@H](C)C(F)(F)F)cn1)n2C1CCC1 [Cpd 48, 6-(3-cyano-1-cyclobutyl-5-methoxy-1H-pyrrolo[2,3-b]pyridin-2-yl)-N-[(2R)-1,1,1-trifluoropropan-2-yl]pyridine-3-sulfonamide] | < 500 nM |
| Cc1ccc2c(C#N)c(-c3ccc(S(=O)(=O)N[C@H](C)C(F)(F)F)cc3)n(C3CCC3)c2n1 [Cpd 91, 4-(3-cyano-1-cyclobutyl-6-methyl-1H-pyrrolo[2,3-b]pyridin-2-yl)-N-[(2R)-1,1,1-trifluoropropan-2-yl]benzenesulfonamide] | < 500 nM |
| Cc1ccc2c(C#N)c(-c3ccc(S(=O)(=O)N[C@@H](C)C(F)(F)F)cn3)n(C3CCC3)c2n1 [Cpd 92, 6-(3-cyano-1-cyclobutyl-6-methyl-1H-pyrrolo[2,3-b]pyridin-2-yl)-N-[(2S)-1,1,1-trifluoropropan-2-yl]pyridine-3-sulfonamide] | < 500 nM |
| Cc1ccc2c(C#N)c(-c3ccc(S(=O)(=O)N[C@H](C)C(F)(F)F)cn3)n(C3CCC3)c2n1 [Cpd 93, 6-(3-cyano-1-cyclobutyl-6-methyl-1H-pyrrolo[2,3-b]pyridin-2-yl)-N-[(2R)-1,1,1-trifluoropropan-2-yl]pyridine-3-sulfonamide] | < 500 nM |
| Cc1ccc2c(C#N)c(-c3ncc(S(=O)(=O)NC(C)C)cn3)n(C3CCC3)c2n1 [Cpd 95, 2-(3-cyano-1-cyclobutyl-6-methyl-1H-pyrrolo[2,3-b]pyridin-2-yl)-N-(propan-2-yl)pyrimidine-5-sulfonamide] | 500 to 2000 nM |
| C[C@@H](NS(=O)(=O)c1cnc(-c2c(C#N)c3cc(C4CC4)cnc3n2C2CCC2)nc1)C(F)(F)F [Cpd 120, 2-(3-cyano-1-cyclobutyl-5-cyclopropyl-1H-pyrrolo[2,3-b]pyridin-2-yl)-N-[(2R)-1,1,1-trifluoropropan-2-yl]pyrimidine-5-sulfonamide] | < 500 nM |
| N#Cc1c(-c2ccc(S(=O)(=O)NC3(C(F)(F)F)CC3)cc2)n(C2CCC2)c2ncc(C3CC3)cc12 [Cpd 123, 4-(3-cyano-1-cyclobutyl-5-cyclopropyl-1H-pyrrolo[2,3-b]pyridin-2-yl)-N-[1-(trifluoromethyl)cyclopropyl]benzenesulfonamide] | < 500 nM |
| CC(C)(C)NS(=O)(=O)c1ccc(-c2c(C#N)c3cc(C4CC4)cnc3n2C2CCC2)nc1 [Cpd 126, N-tert-butyl-6-(3-cyano-1-cyclobutyl-5-cyclopropyl-1H-pyrrolo[2,3-b]pyridin-2-yl)pyridine-3-sulfonamide] | < 500 nM |
| N#Cc1c(-c2ccc(S(=O)(=O)NC(CF)CF)cn2)n(C2CCC2)c2ncc(C3CC3)cc12 [Cpd 131, 6-(3-cyano-1-cyclobutyl-5-cyclopropyl-1H-pyrrolo[2,3-b]pyridin-2-yl)-N-(1,3-difluoropropan-2-yl)pyridine-3-sulfonamide] | < 500 nM |
| CC(C)NS(=O)(=O)c1ccc(-c2c(C#N)c3cc(C4CC4)cnc3n2C2CCC2)cn1 [Cpd 135, 5-(3-cyano-1-cyclobutyl-5-cyclopropyl-1H-pyrrolo[2,3-b]pyridin-2-yl)-N-(propan-2-yl)pyridine-2-sulfonamide] | < 500 nM |
| Cc1ccc2c(C#N)c(-c3ccc(S(=O)(=O)NC(C)(C)C(F)(F)F)cc3)n(C3CCC3)c2n1 [Cpd 139, 4-(3-cyano-1-cyclobutyl-6-methyl-1H-pyrrolo[2,3-b]pyridin-2-yl)-N-(1,1,1-trifluoro-2-methylpropan-2-yl)benzenesulfonamide] | 500 to 2000 nM |
| C[C@H](NS(=O)(=O)c1ccc(-c2c(C#N)c3ccc(C4CC4)nc3n2C2CCC2)cc1)C(F)(F)F [Cpd 149, 4-(3-cyano-1-cyclobutyl-6-cyclopropyl-1H-pyrrolo[2,3-b]pyridin-2-yl)-N-[(2S)-1,1,1-trifluoropropan-2-yl]benzenesulfonamide] | < 500 nM |
| C[C@@H](NS(=O)(=O)c1ccc(-c2c(C#N)c3ccc(C4CC4)nc3n2C2CCC2)cc1)C(F)(F)F [Cpd 150, 4-(3-cyano-1-cyclobutyl-6-cyclopropyl-1H-pyrrolo[2,3-b]pyridin-2-yl)-N-[(2R)-1,1,1-trifluoropropan-2-yl]benzenesulfonamide] | < 500 nM |
| C[C@H](NS(=O)(=O)c1cnc(-c2c(C#N)c3ccc(C4CC4)nc3n2C2CCC2)nc1)C(F)(F)F [Cpd 153, 2-(3-cyano-1-cyclobutyl-6-cyclopropyl-1H-pyrrolo[2,3-b]pyridin-2-yl)-N-[(2S)-1,1,1-trifluoropropan-2-yl]pyrimidine-5-sulfonamide] | < 500 nM |
| CCc1cnc2c(c1)c(C#N)c(-c1ccc(S(=O)(=O)N[C@@H](C)C(F)(F)F)cn1)n2C1CCC1 [Cpd 157, 6-(3-cyano-1-cyclobutyl-5-ethyl-1H-pyrrolo[2,3-b]pyridin-2-yl)-N-[(2S)-1,1,1-trifluoropropan-2-yl]pyridine-3-sulfonamide] | < 500 nM |
| CCc1cnc2c(c1)c(C#N)c(-c1ccc(S(=O)(=O)N[C@H](C)C(F)(F)F)cn1)n2C1CCC1 [Cpd 158, 6-(3-cyano-1-cyclobutyl-5-ethyl-1H-pyrrolo[2,3-b]pyridin-2-yl)-N-[(2R)-1,1,1-trifluoropropan-2-yl]pyridine-3-sulfonamide] | < 500 nM |
| CCc1cnc2c(c1)c(C#N)c(-c1ncc(S(=O)(=O)N[C@@H](C)C(F)(F)F)cn1)n2C1CCC1 [Cpd 159, 2-(3-cyano-1-cyclobutyl-5-ethyl-1H-pyrrolo[2,3-b]pyridin-2-yl)-N-[(2S)-1,1,1-trifluoropropan-2-yl]pyrimidine-5-sulfonamide] | < 500 nM |
| CCc1cnc2c(c1)c(C#N)c(-c1ncc(S(=O)(=O)N[C@H](C)C(F)(F)F)cn1)n2C1CCC1 [Cpd 160, 2-(3-cyano-1-cyclobutyl-5-ethyl-1H-pyrrolo[2,3-b]pyridin-2-yl)-N-[(2R)-1,1,1-trifluoropropan-2-yl]pyrimidine-5-sulfonamide] | < 500 nM |
| CCc1cnc2c(c1)c(C#N)c(-c1ccc(S(=O)(=O)NC(C)(C)C)cn1)n2C1CCC1 [Cpd 186, N-tert-butyl-6-(3-cyano-1-cyclobutyl-5-ethyl-1H-pyrrolo[2,3-b]pyridin-2-yl)pyridine-3-sulfonamide] | < 500 nM |
| CCc1cnc2c(c1)c(C#N)c(-c1ccc(S(=O)(=O)NC3(C)CC3)cn1)n2C1CCC1 [Cpd 188, 6-(3-cyano-1-cyclobutyl-5-ethyl-1H-pyrrolo[2,3-b]pyridin-2-yl)-N-(1-methylcyclopropyl)pyridine-3-sulfonamide] | < 500 nM |
| CCc1cnc2c(c1)c(C#N)c(-c1ncc(S(=O)(=O)NC3(C)CC3)cn1)n2C1CCC1 [Cpd 189, 2-(3-cyano-1-cyclobutyl-5-ethyl-1H-pyrrolo[2,3-b]pyridin-2-yl)-N-(1-methylcyclopropyl)pyrimidine-5-sulfonamide] | < 500 nM |
| CCc1cnc2c(c1)c(C#N)c(-c1ncc(S(=O)(=O)NC(CF)CF)cn1)n2C1CCC1 [Cpd 192, 2-(3-cyano-1-cyclobutyl-5-ethyl-1H-pyrrolo[2,3-b]pyridin-2-yl)-N-(1,3-difluoropropan-2-yl)pyrimidine-5-sulfonamide] | < 500 nM |
| CCc1cnc2c(c1)c(C#N)c(-c1ccc(S(=O)(=O)NC3CC3)cn1)n2C1CCC1 [Cpd 193, 6-(3-cyano-1-cyclobutyl-5-ethyl-1H-pyrrolo[2,3-b]pyridin-2-yl)-N-cyclopropylpyridine-3-sulfonamide] | < 500 nM |

Same assay, conditions: replicon-containing cells cultured with test compound for up to 3 days

| Molecule | IC50 |
| --- | --- |
| 6-(3,6-dicyano-1-cyclobutyl-1H-pyrrolo[2,3-b]pyridin-2-yl)-N-[(2S)-1,1,1-trifluoropropan-2-yl]pyridine-3-sulfonamide [Cpd 241] | < 500 nM |
